Key:
[1] = molecular target: BTK (Homo sapiens (Human), UniProt Q06187); test: Kinase inhibition assay (Nanosyn, microfluidic detection), BTK; assay type: biochemical; conditions: 1 mM ATP, 3 hours at 25° C.
Description: (§1) The in vitro kinase assays were performed at Nanosyn (Santa Clara, Calif.) utilizing microfluidic detection technology. The test compounds were serially pre-diluted in DMSO and added, by the acoustic dispensing (Labcyte® 550), directly to 384 well assay plates into 10 uL of a buffer with enzyme (ITK, TXK, BTK or TEC) comprising: 100 mM HEPES, pH7.5, 5 mM MgCl2, 0.1% bovine serum albumin, 1 mM DTT, 0.01% Triton X-100 and the enzyme. Final DMSO concentration was maintained at 1% in all samples, including the controls. The reactions were initiated by addition of ATP (1 mM final concentration) and the fluorescently labeled peptide substrate to a final concentration of 1 uM, and incubated for 3 hours at 25° C. Following incubation, the reactions were quenched by addition of 40 μL of termination buffer (100 mM HEPES, pH7.5, 0.01% Triton X-100, 50 mM EDTA). Terminated plates were analyzed using Caliper LabChip® 3000 microfluidic electrophoresis instrument (Caliper Life Sciences/Perkin Elmer). The enzymatic modification of the peptide substrate (phosphorylation) results in a change of net charge enabling electrophoretic separation of product from substrate. As substrate and product are separated by electrophoresis, two peaks of fluorescence are observed. Change in the relative fluorescence intensity of the substrate and product peaks was the parameter measured, reflecting enzyme activity. In the presence of inhibitor, the ratio between product and substrate is altered: signal of the product decreases, while the signal of the substrate increases. Activity in each test sample was determined as the product to sum ratio (PSR): P/(S+P), where P is the peak height of the product and S is the peak height of the […]. For each compound, enzyme activity was measured at 12 concentrations spaced by 3× dilution intervals. Negative control samples (0%-inhibition in the absence of inhibitor, DMSO only) and positive control samples (100%-inhibition, in the absence of enzyme or in the presence of control inhibitor) were assembled in replicates of four and were used to calculate %-inhibition values in the presence of compounds. Percent inhibition (Pinh) was determined using the following equation: Pinh=(PSR0%−PSRinh)/(PSR0%−PSR100%)*100, where PSRinh is the product sum ratio in the presence of inhibitor, PSR0% is the product sum ratio in the absence of inhibitor and PSR100% is the product sum ratio in 100%-inhibition control samples. To determine IC50 values, the inhibition curves (Pinh versus inhibitor concentration) were fitted by 4 parameter sigmoid dose-response model using XLfit software (IDBS).

[2] = molecular target: TXK (Homo sapiens (Human), UniProt P42681); test: Kinase inhibition assay (Nanosyn, microfluidic detection), TXK; assay type: biochemical; conditions: 1 mM ATP, 3 hours at 25° C.
Description: as §1, with “The enzymatic modification of the peptide substrate (phosphorylation) results in a change of net charge enabling electrophoretic separation of product from substrate.” left out

Sequence of TXK (P42681 whole entry): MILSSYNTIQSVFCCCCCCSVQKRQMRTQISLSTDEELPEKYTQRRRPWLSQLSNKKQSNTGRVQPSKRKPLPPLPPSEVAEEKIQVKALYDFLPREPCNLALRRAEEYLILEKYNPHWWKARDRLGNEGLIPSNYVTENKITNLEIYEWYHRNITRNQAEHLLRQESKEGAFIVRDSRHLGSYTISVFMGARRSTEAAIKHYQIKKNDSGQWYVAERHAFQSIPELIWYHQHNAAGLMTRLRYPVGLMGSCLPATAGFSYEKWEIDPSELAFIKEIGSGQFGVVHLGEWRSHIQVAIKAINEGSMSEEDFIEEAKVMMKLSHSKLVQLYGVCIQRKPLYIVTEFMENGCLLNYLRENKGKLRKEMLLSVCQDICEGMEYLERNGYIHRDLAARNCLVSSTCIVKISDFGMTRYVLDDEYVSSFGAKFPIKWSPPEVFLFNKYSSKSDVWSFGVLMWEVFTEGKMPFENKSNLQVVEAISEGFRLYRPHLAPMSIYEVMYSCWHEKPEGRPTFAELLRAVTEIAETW
Sequence of BTK (Q06187 whole entry): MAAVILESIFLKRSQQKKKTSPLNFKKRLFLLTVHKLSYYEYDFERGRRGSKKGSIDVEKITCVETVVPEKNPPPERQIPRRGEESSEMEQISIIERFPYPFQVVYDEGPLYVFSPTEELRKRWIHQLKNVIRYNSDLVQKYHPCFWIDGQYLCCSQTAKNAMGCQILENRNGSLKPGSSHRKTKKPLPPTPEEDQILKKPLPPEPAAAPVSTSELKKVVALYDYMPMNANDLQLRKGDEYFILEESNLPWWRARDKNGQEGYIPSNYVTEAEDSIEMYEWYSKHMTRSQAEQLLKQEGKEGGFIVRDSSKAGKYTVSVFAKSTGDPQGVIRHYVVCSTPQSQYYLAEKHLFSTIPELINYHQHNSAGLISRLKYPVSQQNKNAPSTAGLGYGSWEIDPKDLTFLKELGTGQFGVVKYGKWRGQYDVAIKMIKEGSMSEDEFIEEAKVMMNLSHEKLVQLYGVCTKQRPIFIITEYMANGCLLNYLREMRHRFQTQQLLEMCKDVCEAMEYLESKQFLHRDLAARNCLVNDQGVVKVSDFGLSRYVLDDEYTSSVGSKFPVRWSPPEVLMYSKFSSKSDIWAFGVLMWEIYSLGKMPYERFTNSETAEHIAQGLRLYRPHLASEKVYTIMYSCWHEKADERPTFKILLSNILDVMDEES

Compound | IC50 [1] | IC50 [2]
C=CC(=O)N1CC[C@]2(C1)C[C@H](n1c(NC(=O)c3ccc(C#N)cc3)nc3ccccc31)C2 [Compound 48] | 4.37 nM | 1.16 nM
C=CC(=O)N1CC[C@]2(C1)C[C@H](n1c(NC(=O)c3ccc(-c4nnc(C)o4)s3)nc3ccccc31)C2 [Compound 94] | 1.38 nM | 0.82 nM
C=CC(=O)N1CC[C@]2(C1)C[C@H](n1c(NC(=O)c3ccc(-c4cn[nH]c4)s3)nc3ccccc31)C2 [Compound 124] | 1.43 nM | 0.34 nM
C=CC(=O)N1CC[C@]2(C1)C[C@H](n1c(NC(=O)c3ccc(-c4cnco4)s3)nc3c(Cl)cccc31)C2 [Compound 64] | 124 nM | 39.7 nM
C=CC(=O)N1CC[C@]2(C1)C[C@H](n1c(NC(=O)c3ccc(-c4ccnc(C)c4)s3)nc3ccccc31)C2 [Compound 147] | 0.41 nM | 0.21 nM
C=CC(=O)N1CC[C@]2(C1)C[C@H](n1c(NC(=O)c3ccc(-c4ccnc(NC)n4)s3)nc3ccccc31)C2 [Compound 137] | 0.98 nM | 0.76 nM
C=CC(=O)N1CC[C@]2(C1)C[C@H](n1c(NC(=O)c3ccncc3)nc3cc(CN[C@@H](C)C(C)(C)C)ccc31)C2 [Compound 20] | 4.52 nM | 1.84 nM
C=CC(=O)N1CC[C@]2(C1)C[C@H](n1c(NC(=O)c3ccc(-c4cncc(NC)c4)s3)nc3ccccc31)C2 [Compound 142] | 0.62 nM | 0.48 nM
C=CC(=O)N1CC[C@]2(C1)C[C@H](n1c(NC(=O)c3ccc(-c4ccnc(F)c4)s3)nc3ccccc31)C2 [Compound 125] | 1.06 nM | 0.24 nM
C=CC(=O)N1CC[C@]2(C1)C[C@H](n1c(NC(=O)c3ccc(-c4cnco4)cc3)nc3cc(CN[C@@H](C)C(C)(C)C)ccc31)C2 [Compound 39] | 5.67 nM | 0.97 nM
C=CC(=O)N1CC[C@]2(C1)C[C@H](n1c(NC(=O)c3ccc(-c4cnco4)s3)nc3cc(N(C)C(=O)C4CCCCC4)ccc31)C2 [Compound 60] | 1.15 nM | 0.4 nM
C=CC(=O)N1CC[C@]2(C1)C[C@H](n1c(NC(=O)c3ccc(-c4cnco4)s3)nc3cc(Cl)ccc31)C2 [Compound 63] | 1.29 nM | 0.37 nM
C#Cc1ccc(C(=O)Nc2nc3ccccc3n2[C@H]2C[C@@]3(CCN(C(=O)C=C)C3)C2)s1 [Compound 107] | 21.1 nM | 5.25 nM
C=CC(=O)N1CC[C@]2(C1)C[C@H](n1c(NC(=O)c3ccc(-c4c[nH]nc4C4CC4)s3)nc3ccccc31)C2 [Compound 129] | 0.84 nM | 0.21 nM
C=CC(=O)N1CC[C@]2(C1)C[C@H](n1c(NC(=O)c3ccc(-c4ccc(NC)nc4)s3)nc3ccccc31)C2 [Compound 117] | 7.43 nM | 4.9 nM
C=CC(=O)N1CC[C@]2(C1)C[C@H](n1c(NC(=O)c3ccc(-c4cncn4C)s3)nc3ccccc31)C2 [Compound 123] | 5.33 nM | 0.49 nM
C=CC(=O)N1CC[C@]2(C1)C[C@H](n1c(NC(=O)c3ccc(C(=O)NCC)s3)nc3ccccc31)C2 [Compound 101] | 9.24 nM | 0.93 nM
C=CC(=O)N1CC[C@]2(C1)C[C@H](n1c(NC(=O)c3ccc(-c4cc(NC)ncn4)s3)nc3ccccc31)C2 [Compound 145] | 0.49 nM | 0.2 nM
C=CC(=O)N1CC[C@]2(C1)C[C@@H](n1c(NC(=O)c3ccc(-c4cnco4)s3)nc3c(F)cccc31)C2 [Compound 67] | 99.2 nM | 19.7 nM

Compound | IC50 [1] | IC50 [2]
C=CC(=O)N1CC[C@]2(C1)C[C@H](n1c(NC(=O)c3ccc(-c4cc(N)ncn4)s3)nc3ccccc31)C2 [Compound 141] | 1.83 nM | 0.29 nM
C=CC(=O)N1CC[C@]2(C1)C[C@H](n1c(NC(=O)c3ccc(-c4cccnc4)s3)nc3ccccc31)C2 [Compound 90] | 5.23 nM | 0.51 nM
C=CC(=O)N1CC[C@]2(C1)C[C@H](n1c(NC(=O)c3ccc(-c4cc[nH]n4)s3)nc3ccccc31)C2 [Compound 116] | 15.7 nM | 3.08 nM
C=CC(=O)N1CC[C@]2(C1)C[C@H](n1c(NC(=O)c3ccc(-c4cnco4)s3)nc3ccc(CN4CCOCC4)cc31)C2 [Compound 77] | 0.78 nM | 0.37 nM
C=CC(=O)N1CC[C@]2(C1)C[C@H](n1c(NC(=O)c3ccc(-c4cnco4)s3)nc3cc(N(C)C(=O)C(C)C)ccc31)C2 [Compound 54] | 0.56 nM | 0.3 nM
C=CC(=O)N1CC[C@]2(C1)C[C@H](n1c(NC(=O)c3ccc(-c4ccn(C)c(=O)c4)s3)nc3ccccc31)C2 [Compound 109] | 43.5 nM | 14 nM
C=CC(=O)N1CC[C@]2(C1)C[C@H](n1c(NC(=O)c3ccc(-c4cncc(NC)n4)s3)nc3ccccc31)C2 [Compound 140] | 0.54 nM | 0.2 nM
C=CC(=O)N1CC[C@]2(C1)C[C@H](n1c(NC(=O)c3cc(C)cs3)nc3ccccc31)C2 [Compound 79] | 251 nM | 17 nM
C=CC(=O)N1CC[C@]2(C1)C[C@H](n1c(NC(=O)c3ccc(C(F)F)s3)nc3cc(CN[C@H]4CC[C@H](O)CC4)ccc31)C2 [Compound 35] | 1.04 nM | 0.46 nM
C=CC(=O)N1CC[C@]2(C1)C[C@H](n1c(NC(=O)c3ccnc(C)c3)nc3cc(CN[C@@H](C)C(C)(C)C)ccc31)C2 [Compound 24] | 5.47 nM | 0.99 nM
C=CC(=O)N1CC[C@]2(C1)C[C@H](n1c(NC(=O)c3ccc(C)s3)nc3ccccc31)C2 [Compound 104] | 26.2 nM | 2.16 nM
C=CC(=O)N1CC[C@]2(C1)C[C@H](n1c(NC(=O)c3ccc(-c4cnco4)s3)nc3cc(N(C)C(=O)C4CC4)ccc31)C2 [Compound 52] | 0.58 nM | 0.39 nM
C=CC(=O)N1CC[C@]2(C1)C[C@H](n1c(NC(=O)c3ccc(-c4ccc(F)nc4)s3)nc3ccccc31)C2 [Compound 126] | 9.21 nM | 0.8 nM
C=CC(=O)N1CC[C@]2(C1)C[C@H](n1c(NC(=O)c3ccc(-c4cnco4)s3)nc3cc(N(C)C(=O)[C@H](C)N4CCOCC4)ccc31)C2 [Compound 59] | 1.64 nM | 0.44 nM
C=CC(=O)N1CC[C@]2(C1)C[C@H](n1c(NC(=O)c3ccnn3C)nc3cc(CN[C@@H](C)C(C)(C)C)ccc31)C2 [Compound 14] | 23.4 nM | 3.9 nM
C=CC(=O)N1CC[C@]2(C1)C[C@H](n1c(NC(=O)c3ccc(=O)[nH]c3)nc3ccccc31)C2 [Compound 83] | 7.55 nM | 1.98 nM
C=CC(=O)N1CC[C@]2(C1)C[C@H](n1c(NC(=O)c3ccc(-c4ccnn4C)s3)nc3ccccc31)C2 [Compound 75] | 1.03 nM | 0.12 nM
C=CC(=O)N1CC[C@]2(C1)C[C@H](n1c(NC(=O)c3ccc(C(F)F)s3)nc3cc(CN4CCCC4)ccc31)C2 [Compound 34] | 1.39 nM | 0.45 nM

Source: patent publication US10752615B2, “Spirocyclic containing compounds and pharmaceutical uses thereof” (GB005, Inc., priority 2016, dated 2020)
